Results published in ChEMBL document CHEMBL1152038, “Quaternised renzapride as a potent and selective 5-HT4 receptor agonist” (Bioorg Med Chem Lett, 1993).
pEC50, pKi: −log10 of the molar value.

Tests used:
[1] = molecular target: 5-hydroxytryptamine receptor 4 (Rattus norvegicus, UniProt Q62758); test: Tested for its agonist potency against the 5-hydroxytryptamine 4 receptor located in the rat esophageal tunica muscularis mucosae; format: functional, tissue-based, Muscularis mucosa
[2] = molecular target: 5-hydroxytryptamine receptor 4 (Rattus norvegicus) (UniProt Q62758); test: Tested for its efficacy against the 5-hydroxytryptamine 4 receptor located in the rat esophageal tunica muscularis mucosae; format: tissue-based; details: Muscularis mucosa
[3] = molecular target: T1, Serotonin 3 (5-HT3) receptor (Rattus norvegicus, UniProt P35563+Q9JJ16); test: Tested for its binding affinity by measuring its ability to displace [3H]granisetron from 5-hydroxytryptamine 3 receptor in rat cortex
T1 sequence (P35563 whole entry): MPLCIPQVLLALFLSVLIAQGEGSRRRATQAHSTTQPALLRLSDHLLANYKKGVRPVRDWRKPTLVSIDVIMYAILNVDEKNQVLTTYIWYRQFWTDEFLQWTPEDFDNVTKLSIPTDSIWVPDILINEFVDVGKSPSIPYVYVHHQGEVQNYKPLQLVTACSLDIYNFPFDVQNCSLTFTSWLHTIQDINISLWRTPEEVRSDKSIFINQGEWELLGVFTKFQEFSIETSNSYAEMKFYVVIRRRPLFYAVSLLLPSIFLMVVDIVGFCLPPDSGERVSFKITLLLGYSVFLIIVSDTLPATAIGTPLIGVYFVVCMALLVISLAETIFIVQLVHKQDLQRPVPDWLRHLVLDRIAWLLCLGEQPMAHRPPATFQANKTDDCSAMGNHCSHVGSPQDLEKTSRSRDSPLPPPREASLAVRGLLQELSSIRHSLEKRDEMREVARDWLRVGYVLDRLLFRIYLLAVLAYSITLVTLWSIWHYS
T1 sequence (Q9JJ16 whole entry): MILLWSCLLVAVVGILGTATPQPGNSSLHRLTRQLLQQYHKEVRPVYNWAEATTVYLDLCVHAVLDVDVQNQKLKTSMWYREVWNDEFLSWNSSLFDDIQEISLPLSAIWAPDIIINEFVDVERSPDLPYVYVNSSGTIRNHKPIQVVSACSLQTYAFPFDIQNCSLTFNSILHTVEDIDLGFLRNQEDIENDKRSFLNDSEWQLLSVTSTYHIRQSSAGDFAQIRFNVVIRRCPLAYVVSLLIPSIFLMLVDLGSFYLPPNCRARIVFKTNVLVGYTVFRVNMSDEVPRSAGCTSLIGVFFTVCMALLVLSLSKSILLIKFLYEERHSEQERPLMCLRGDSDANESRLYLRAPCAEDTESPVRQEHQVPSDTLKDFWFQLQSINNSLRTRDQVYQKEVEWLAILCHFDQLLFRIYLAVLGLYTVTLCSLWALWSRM

Chain of 5-hydroxytryptamine receptor 4 (Rattus norvegicus) (Q62758 whole entry): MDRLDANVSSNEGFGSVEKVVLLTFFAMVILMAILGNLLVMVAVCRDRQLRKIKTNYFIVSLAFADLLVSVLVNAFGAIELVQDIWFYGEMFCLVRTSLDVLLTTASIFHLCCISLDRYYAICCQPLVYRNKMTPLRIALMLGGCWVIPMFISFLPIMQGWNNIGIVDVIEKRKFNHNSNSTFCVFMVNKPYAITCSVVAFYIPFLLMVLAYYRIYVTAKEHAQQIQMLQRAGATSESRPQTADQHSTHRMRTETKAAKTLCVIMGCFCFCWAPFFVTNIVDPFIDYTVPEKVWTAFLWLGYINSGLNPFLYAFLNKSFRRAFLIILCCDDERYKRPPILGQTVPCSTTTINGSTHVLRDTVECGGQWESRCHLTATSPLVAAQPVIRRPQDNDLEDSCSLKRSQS
Chain of 5-hydroxytryptamine receptor 4 (Q62758 whole entry): as above

CC(C)n1c(=O)n(C(=O)NC2CC3CCC(C2)N3C)c2ccccc21 (centres undefined)
pEC50 [1]: 7.90 | Intrinsic activity [2]: 0.9 | pKi [3]: 8.80

CCN(CC)CCNC(=O)c1cc(Cl)c(N)cc1OC [METOCLOPRAMIDE]
Intrinsic activity [2]: 0.8 | pKi [3]: 6.80

CCn1c(=O)n(C(=O)NC2CC3CCC(C2)N3C)c2ccccc21 (centres undefined)
pEC50 [1]: 8.00 | Intrinsic activity [2]: 0.7 | pKi [3]: 8.40

CCCC[N+]12CCCC(C1)C(NC(=O)c1cc(Cl)c(N)cc1OC)CC2 (centres undefined)
pEC50 [1]: 8.02 | Intrinsic activity [2]: 0.79 | pKi [3]: 6.90

COc1cc(N)c(Cl)cc1C(=O)NC1CCN2CCCC1C2 (centres undefined) [RENZAPRIDE]
pEC50 [1]: 7.20 | Intrinsic activity [2]: 0.8 | pKi [3]: 8.30
